Patent publication US20230295115A1, “SUBSTITUTED ISOQUINOLINYLMETHYL AMIDES, ANALOGUES THEREOF, AND METHODS USING SAME” (priority 2020, published 2023)

What follows are compounds tested on HBV rcDNA (assay: HepDE19 assay with bDNA quantitation of HBV rcDNA). Settings: HepDE19 cells, 7 day incubation, rcDNA measured by Quantigene 2.0 bDNA assay, top concentration 25 μM; read-out: DE-19bDNA EC50.
Format: cell-based, hepatitis B virus (HBV)
How it was run: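 HepDE19 cells were switched to tetracycline-free medium and exposed to compound (0.5% DMSO final) for 7 days at 37° C. rcDNA was then quantified by bDNA with an HBV-specific probe set. In parallel, viability was read as ATP content (CellTiter-Glo) after 4 days on replicate plates.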
Compound `CC(c1c[nH]c(=O)c2cc(F)c(F)cc12)N(C)C(=O)c1ccc(Cl)c(F)c1` (single isomer, unassigned) [Compound 121, 4-Chloro-N-(1-(6,7-difluoro-1-oxo-1,2-dihydroisoquinolin-4-yl)ethyl)-3-fluoro-N-methylbenzamide] has an EC50 of 5680 nM.
In the case of `CC(c1c[nH]c(=O)c2cc(F)c(F)cc12)N(C)C(=O)c1ccc(Cl)c(F)c1` (single isomer, unassigned) [Compound 122, 4-Chloro-N-(1-(6,7-difluoro-1-oxo-1,2-dihydroisoquinolin-4-yl)ethyl)-3-fluoro-N-methylbenzamide], the EC50 is reported as 40 nM.
Work on `CC(c1c[nH]c(=O)c2cc(F)c(F)cc12)N(C)C(=O)c1cc(F)c(F)c(F)c1` (single isomer, unassigned) [Compound 123, N-(1-(6,7-Difluoro-1-oxo-1,2-dihydroisoquinolin-4-yl)ethyl)-3,4,5-trifluoro-N-methylbenzamide] yielded an EC50 of 22400 nM.
For `CC(c1c[nH]c(=O)c2cc(F)c(F)cc12)N(C)C(=O)c1cc(F)c(F)c(F)c1` (single isomer, unassigned) [Compound 124, N-(1-(6,7-Difluoro-1-oxo-1,2-dihydroisoquinolin-4-yl)ethyl)-3,4,5-trifluoro-N-methylbenzamide], the EC50 was 190 nM.
For `CC(c1c[nH]c(=O)c2cc(F)c(F)cc12)N(C)C(=O)c1cccc(C(F)F)c1` (single isomer, unassigned) [Compound 125, N-(1-(6,7-Difluoro-1-oxo-1,2-dihydroisoquinolin-4-yl)ethyl)-3-(difluoromethyl)-N-methylbenzamide], the EC50 was 24800 nM.
With `CC(c1c[nH]c(=O)c2cc(F)c(F)cc12)N(C)C(=O)c1cccc(C(F)F)c1` (single isomer, unassigned) [Compound 126, N-(1-(6,7-Difluoro-1-oxo-1,2-dihydroisoquinolin-4-yl)ethyl)-3-(difluoromethyl)-N-methylbenzamide] the EC50 was 100 nM.
With `CC(c1c[nH]c(=O)c2cc(F)c(F)cc12)N(C)C(=O)c1ccc(C(F)(F)F)cc1` (single isomer, unassigned) [Compound 129, N-(1-(6,7-Difluoro-1-oxo-1,2-dihydroisoquinolin-4-yl)ethyl)-N-methyl-4-(trifluoromethyl) benzamide] the EC50 was 6460 nM.
`CC(c1c[nH]c(=O)c2cc(F)c(F)cc12)N(C)C(=O)c1ccc(C(F)(F)F)cc1` (single isomer, unassigned) [Compound 130, N-(1-(6,7-Difluoro-1-oxo-1,2-dihydroisoquinolin-4-yl)ethyl)-N-methyl-4-(trifluoromethyl) benzamide] showed an EC50 of 20 nM.
`CC(c1c[nH]c(=O)c2cc(F)c(F)cc12)N(C)C(=O)c1ccc(F)c(C(F)F)c1` (single isomer, unassigned) [Compound 133, N-(1-(6,7-Difluoro-1-oxo-1,2-dihydroisoquinolin-4-yl)ethyl)-3-(difluoromethyl)-4-fluoro-N-methylbenzamide] showed an EC50 of 14600 nM.
`CC(c1c[nH]c(=O)c2cc(F)c(F)cc12)N(C)C(=O)c1ccc(F)c(C(F)F)c1` (single isomer, unassigned) [Compound 134, N-(1-(6,7-Difluoro-1-oxo-1,2-dihydroisoquinolin-4-yl)ethyl)-3-(difluoromethyl)-4-fluoro-N-methylbenzamide] was tested, and the EC50 was 60 nM.
With `CC(c1c[nH]c(=O)c2cc(F)c(F)cc12)N(C)C(=O)c1ccc(F)c(Cl)c1` (single isomer, unassigned) [Compound 135, 3-Chloro-N-(1-(6,7-difluoro-1-oxo-1,2-dihydroisoquinolin-4-yl)ethyl)-4-fluoro-N-methylbenzamide] the EC50 was 9610 nM.
Work on `CC(c1c[nH]c(=O)c2cc(F)c(F)cc12)N(C)C(=O)c1ccc(F)c(Cl)c1` (single isomer, unassigned) [Compound 136, 3-Chloro-N-(1-(6,7-difluoro-1-oxo-1,2-dihydroisoquinolin-4-yl)ethyl)-4-fluoro-N-methylbenzamide] yielded an EC50 of 170 nM.
Compound `CC(c1c[nH]c(=O)c2cc(F)c(F)cc12)N(C)C(=O)c1ccc(F)c(F)c1` (single isomer, unassigned) [Compound 137, N-(1-(6,7-Difluoro-1-oxo-1,2-dihydroisoquinolin-4-yl)ethyl)-3,4-difluoro-N-methylbenzamide] has an EC50 of 22400 nM.
In the case of `CC(c1c[nH]c(=O)c2cc(F)c(F)cc12)N(C)C(=O)c1ccc(F)c(F)c1` (single isomer, unassigned) [Compound 138, N-(1-(6,7-Difluoro-1-oxo-1,2-dihydroisoquinolin-4-yl)ethyl)-3,4-difluoro-N-methylbenzamide], the EC50 is reported as 450 nM.
`CC(c1c[nH]c(=O)c2cc(F)c(F)cc12)N(C)C(=O)c1ccc2c(ccn2C)c1` (single isomer, unassigned) [Compound 139, N-(1-(6,7-difluoro-1-oxo-1,2-dihydroisoquinolin-4-yl)ethyl)-N,1-dimethyl-1H-indole-5-carboxamide] was tested, and the EC50 was over 25000 nM.
With `CC(c1c[nH]c(=O)c2cc(F)c(F)cc12)N(C)C(=O)c1ccc2c(ccn2C)c1` (single isomer, unassigned) [Compound 140, N-(1-(6,7-difluoro-1-oxo-1,2-dihydroisoquinolin-4-yl)ethyl)-N,1-dimethyl-1H-indole-5-carboxamide] the EC50 was 120 nM.
Work on `CC(c1c[nH]c(=O)c2cc(F)c(F)cc12)N(C)C(=O)c1ccc2ccn(C)c2c1` (single isomer, unassigned) [Compound 141, N-(1-(6,7-Difluoro-1-oxo-1,2-dihydroisoquinolin-4-yl)ethyl)-N,1-dimethyl-1H-indole-6-carboxamide] yielded an EC50 of over 25000 nM.
`CC(c1c[nH]c(=O)c2cc(F)c(F)cc12)N(C)C(=O)c1ccc2ccn(C)c2c1` (single isomer, unassigned) [Compound 142, N-(1-(6,7-Difluoro-1-oxo-1,2-dihydroisoquinolin-4-yl)ethyl)-N,1-dimethyl-1H-indole-6-carboxamide] showed an EC50 of 390 nM.
`CC(c1cn(C)c(=O)c2cc(F)c(F)cc12)N(C)C(=O)c1ccc(Br)c(F)c1` (single isomer, unassigned) [Compound 161, 4-bromo-N-(1-(6,7-difluoro-2-methyl-1-oxo-1,2-dihydroisoquinolin-4-yl)ethyl)-3-fluoro-N-methylbenzamide] showed an EC50 of 3090 nM.
With `CC(c1cn(C)c(=O)c2cc(F)c(F)cc12)N(C)C(=O)c1ccc(Br)c(F)c1` (single isomer, unassigned) [Compound 162, 4-bromo-N-(1-(6,7-difluoro-2-methyl-1-oxo-1,2-dihydroisoquinolin-4-yl)ethyl)-3-fluoro-N-methylbenzamide] the EC50 was 30 nM.
In the case of `CC(c1cn(C)c(=O)c2cc(F)c(F)cc12)N(C)C(=O)c1ccc(C(F)(F)F)c(F)c1` (single isomer, unassigned) [Compound 166, N-(1-(6,7-difluoro-2-methyl-1-oxo-1,2-dihydroisoquinolin-4-yl)ethyl)-3-fluoro-N-methyl-4-(trifluoromethyl)benzamide], the EC50 is reported as 3320 nM.
Work on `CC(c1cn(C)c(=O)c2cc(F)c(F)cc12)N(C)C(=O)c1ccc(Br)cc1` (single isomer, unassigned) [Compound 167, 4-bromo-N-(1-(6,7-difluoro-2-methyl-1-oxo-1,2-dihydroisoquinolin-4-yl)ethyl)-N-methylbenzamide] yielded an EC50 of 2320 nM.
For `CC(c1cn(C)c(=O)c2cc(F)c(F)cc12)N(C)C(=O)c1ccc(Br)cc1` (single isomer, unassigned) [Compound 168, 4-bromo-N-(1-(6,7-difluoro-2-methyl-1-oxo-1,2-dihydroisoquinolin-4-y1)ethyl)-N-methylbenzamide], the EC50 was 30 nM.

Same assay, conditions: Hepatitis B virus, HepDE19, 168 h, HepDE19 cells, 7 day incubation, rcDNA measured by Quantigene 2.0 bDNA assay, top concentration 25 μM; read-out: DE-19bDNA EC50
In the case of `CC(c1cn(C)c(=O)c2cc(F)c(F)cc12)N(C)C(=O)c1ccc(C(F)(F)F)c(F)c1` (single isomer, unassigned) [Compound 165, N-(1-(6,7-difluoro-2-methyl-1-oxo-1,2-dihydroisoquinolin-4-yl)ethyl)-3-fluoro-N-methyl-4-(trifluoromethyl)benzamide], the EC50 is reported as 2340 nM.

Same assay, conditions: read-out: DE-19bDNA EC50; HepDE19 cells, 7 day incubation, rcDNA measured by Quantigene 2.0 bDNA assay, top concentration 25 μM
Compound `CC(c1c[nH]c(=O)c2cc(F)c(F)cc12)N(C)C(=O)c1ccccc1` (single isomer, unassigned) [Compound 127, N-(1-(6,7-Difluoro-1-oxo-1,2-dihydroisoquinolin-4-yl)ethyl)-N-methylbenzamide] has an EC50 of 3530 nM.
Work on `CC(c1c[nH]c(=O)c2cc(F)c(F)cc12)N(C)C(=O)c1ccccc1` (single isomer, unassigned) [Compound 128, N-(1-(6,7-Difluoro-1-oxo-1,2-dihydroisoquinolin-4-yl)ethyl)-N-methylbenzamide] yielded an EC50 of over 25000 nM.
With `CC(c1c[nH]c(=O)c2cc(F)c(F)cc12)N(C)C(=O)c1ccc(Cl)cc1` (single isomer, unassigned) [Compound 131, 4-Chloro-N-(1-(6,7-difluoro-1-oxo-1,2-dihydroisoquinolin-4-yl)ethyl)-N-methylbenzamide] the EC50 was 14700 nM.
`CC(c1c[nH]c(=O)c2cc(F)c(F)cc12)N(C)C(=O)c1ccc(Cl)cc1` (single isomer, unassigned) [Compound 132, 4-Chloro-N-(1-(6,7-difluoro-1-oxo-1,2-dihydroisoquinolin-4-yl)ethyl)-N-methylbenzamide] gave an EC50 of 60 nM.
In the case of `COc1ncc(C(C)N(C)C(=O)c2ccc(Br)cc2)c2cc(F)c(F)cc12` (single isomer, unassigned) [Compound 163, 4-Bromo-N-(1-(6,7-difluoro-1-methoxyisoquinolin-4-yl)ethyl)-N-methylbenzamide], the EC50 is reported as 440 nM.
`COc1ncc(C(C)N(C)C(=O)c2ccc(Br)cc2)c2cc(F)c(F)cc12` (single isomer, unassigned) [Compound 164, 4-Bromo-N-(1-(6,7-difluoro-1-methoxyisoquinolin-4-yl)ethyl)-N-methylbenzamide] showed an EC50 of 17200 nM.
